Measured values from patent publication US8642784B2, “Biologically active compound N-[3-(4-nitrophenylamino)-indole-2-ilmethylene]aminoguanidine hydrochloride with anti-inflammatory activity” (priority 2010, dated 2014).
Like-named read-outs stand apart in the source and are kept apart here. Marks after values point to notes of the source that are not given here.

Tests used:
[1] = test system: LPS-induced peritonitis in mice; test: LPS-induced peritonitis in mice, volume of exudate; assay type: in vivo
Description: Activity was studies using the methods listed in “Methodical recommendations on experimental (preclinical) research of new nonsteroidal anti-inflammatory drugs” for new compounds screening, in animal models of peritonitis induced by lipopolysaccharide (LPS) and carrageenan.
(§1) Anti-exudative action was studied in male mice with body mice 22.0-23.0 g. Peritonitis was induced by intraperitoneal administration of lipopolysaccharide (LPS), produced from Escherichia coli (Sigma) 1.0 mg/kg, as described in [6]: after 4 hours the animals were sacrificed by CO2, their peritoneal cavity opened and the volume of exudate was measured in ml. Studied compounds and drugs of comparison were administered per os one hour before LPS, control group was composed of mice receiving 0.3 ml of saline before LPS administration. Each group had 10 animals.
(§2) The results were processed using variation statistics methods for biological research (mean standard error, means were calculated using Student's t-distribution).

[2] = test system: constitutive forms of NO-synthase; conditions: compared with L-NMMA; cited from earlier work
[3] = test system: carrageenan-induced peritonitis in mice; test: Carrageenan-induced peritonitis in mice, volume of exudate; assay type: in vivo
Description: Research was carried out by a method described in [5]. Experiments were performed using male mice with body mass 23-24 g, in groups of 10 animals. […] The results were processed using variation statistics methods for biological research (mean standard error, means were calculated using Student's t-distribution).

mice stomach [4] = assay type: in vivo; conditions: for Average ulcerogenic index (4-point scale) of chronic administration of pharmacological dose: mice, per os 7 days, compound 2 200 mg/kg, indomethacin 20 mg/kg, voltaren 50 mg/kg, aminoguanidine 200 mg/kg; for Ulcerogenic effects of drugs of comparison: mice ulceration models, summary of table 4
Description: (§3) Studies were performed according to the following scheme: • 1. […] Study of the compounds' ulcerogenic action using pharmaceutical dose during 7 days of administration. • 3. Aggravation of ulcerogenic effects of studied compounds by 0.6H hydrochloric acid. • 4. Aggravation of ulcerogenic effects of studied compounds by the known NSAIDs (indomethacin). 1.
(§4) Ulcerogenic effect was assessed using 4-point scale: 0—no damage; 0.5—hyperemia; 1—insignificant damage (1 or 2 small bleedings); 2—multiple damage (erosions, small bleedings); 3—significant and multiple damage (erosions, bleedings); 4—severe damage, affecting all gastric mucosa (massive bleedings, erosions, perforations).
After 7 days the animals were sacrificed by CO2, their stomachs extracted and the number of ulcers counted.
(§5) Drugs of comparison: indomethacin 20 mg/kg, voltaren—50 mg/kg and aminoguanidine—200 mg/kg. Each test group had 10 animals.

mice stomach [5] = test: Aggravation of ulcerogenic effect by indomethacin; assay type: in vivo; conditions: mice; compound 2 100 mg/kg, voltaren 50 mg/kg, aminoguanidine 200 mg/kg, 1 hour before indomethacin 20 mg/kg; after 5 hours
Description: as §3, §4
(§6) Male mice with body mass 23-24 g were deprived of food for 24 hours, water access was not limited.
Drugs of comparison: voltaren—50 mg/kg and aminoguanidine—200 mg/kg. Each test group had 10 animals.

mice stomach [6] = test: Aggravation of ulcerogenic effects by 0.6H hydrochloric acid; assay type: in vivo; conditions: compound 2 100 mg/kg, indomethacin 20 mg/kg, voltaren 50 mg/kg, aminoguanidine 200 mg/kg, 1 hour before 0.6H HCl 5 ml/kg, after 4 hours
Description: as §3, §4, §6, §5

[7] = molecular target: inducible isoenzymes of NO-synthase (Homo sapiens, UniProt P35228); conditions: most in vitro systems; cited from earlier work
[8] = test system: LPS-induced peritonitis in rats; test: LPS-induced peritonitis in rats, volume of exudate; assay type: in vivo; conditions: rats; for ED50: LPS-induced peritonitis, per os
Description: as §1, with “male rate” for “male mice”, “body mass 170.0-180.0” for “body mice 22.0-23.0”, “coli (Sigma)—1.0 mg/kg” for “coli (Sigma) 1.0 mg/kg,”, “of rats” for “of mice”, “had 7” for “had 10”
as §2

animal models = conditions: in vivo; cited from earlier work

SMILES	Anti-inflammatory activity in LPS-induced peritonitis model, % of control ([1]; 50.0 mg/kg per os)	Anti-inflammatory activity in LPS-induced peritonitis model, % of control ([1]; 100.0 mg/kg per os)	Anti-inflammatory activity in carrageenan-induced peritonitis model, % of control ([3]; 50.0 mg/kg per os)	Anti-inflammatory activity in carrageenan-induced peritonitis model, % of control ([3]; 100.0 mg/kg per os)	Average ulcerogenic index (4-point scale) of chronic administration of pharmacological dose (mice stomach [4])	Average ulcerogenic index (4-point scale) of combining the studied compounds with indomethacin (mice stomach [5])	Average ulcerogenic index (4-point scale) of combining the studied compounds with hydrochloric acid (mice stomach [6])	Anti-inflammatory activity in LPS-induced peritonitis model, % of control ([8]; 25.0 mg/kg per os)	Anti-inflammatory activity in LPS-induced peritonitis model, % of control ([8]; 50.0 mg/kg per os)	Anti-inflammatory activity in LPS-induced peritonitis model, % of control ([8]; 75.0 mg/kg per os)	Ulcerogenic effects of drugs of comparison (mice stomach [4])	other results
N=C(N)NN [Aminoguanidine, N-aminoguanidine]	51.1* % of control	73.3* % of control	25.5* % of control	70.6* % of control	0	0.19	0.15	4.0 % of control	22.0* % of control	58.0* % of control		Anti-inflammatory activity in LPS-induced peritonitis model, % of control ([1]; 200.0 mg/kg per os): 91.1* % of control; Activity towards constitutive forms of NO-synthase [2]: much less active towards constitutive forms; Anti-inflammatory activity in carrageenan-induced peritonitis model, % of control ([3]; 200.0 mg/kg per os): 84.3* % of control; Inhibition of inducible isoenzymes of NO-synthase [7]: equally effective in inhibiting inducible isoenzymes; Anti-inflammatory activity in LPS-induced peritonitis model, % of control ([8]; 100.0 mg/kg per os): 78.0* % of control; Anti-inflammatory activity in LPS-induced peritonitis model, % of control ([8]; 200.0 mg/kg per os): 100.0* % of control; ED50 [8]: 70.0 ± 2.5 mg/kg; Effect in animal models of inflammation, septic shock, endotoxin (animal models): reduces the severity of inflammation and septic shock, improves survival during endotoxin administration
COc1ccc2c(c1)c(CC(=O)O)c(C)n2C(=O)c1ccc(Cl)cc1 [Indomethacin, indomethacin]					1.15		2.4				had ulcerogenic effects	
O=C(O)Cc1ccccc1Nc1c(Cl)cccc1Cl [Voltaren, sodium diclofenac]	95.6* % of control	100.0* % of control	90.2* % of control	100.0* % of control	0.35	2.5	0.55	65.0* % of control	84.0* % of control	100.0* % of control	had ulcerogenic effects	Anti-inflammatory activity in LPS-induced peritonitis model, % of control ([1]; 25.0 mg/kg per os): 82.2* % of control; Anti-inflammatory activity in carrageenan-induced peritonitis model, % of control ([3]; 25.0 mg/kg per os): 80.4* % of control; ED50 ([8]; Rattus norvegicus, po, read-out: ED50): 20 ± 1.5 mg/kg; Anti-inflammatory activity in LPS-induced peritonitis model, % of control ([8]; 10.0 mg/kg per os): 22.0 % of control
